Assay results reported in BindingDB's records for doi:10.1021/jm00371a008 (1984).

target: Folylpolyglutamate synthase (Mus musculus); experiment: Compound was evaluated for the binding affinity to mouse liver folyl polyglutamate synthetase.

Ki [µM] | Structure (SMILES)
43 | Nc1nc(N)c2nc(CNc3ccc(C(=O)NC(CS(=O)(=O)O)C(=O)O)cc3)cnc2n1 (centres undefined) [2-{4-[(2,4-Diamino-pteridin-6-ylmethyl)-amino]-benzoylamino}-3-sulfo-propionic acid]
59 | Nc1nc(N)c2nc(CNc3ccc(C(=O)NC(CCS(=O)(=O)O)C(=O)O)cc3)cnc2n1 (centres undefined) [2-{4-[(2,4-Diamino-pteridin-6-ylmethyl)-amino]-benzoylamino}-4-sulfo-butyric acid]
136 | CN(Cc1cnc2nc(N)nc(N)c2n1)c1ccc(C(=O)NC(CS(=O)(=O)O)C(=O)O)cc1 (centres undefined) [2-{4-[(2,4-Diamino-pteridin-6-ylmethyl)-methyl-amino]-benzoylamino}-3-sulfo-propionic acid]
198 | CN(Cc1cnc2nc(N)nc(N)c2n1)c1ccc(C(=O)NC(CCS(=O)(=O)O)C(=O)O)cc1 (centres undefined) [2-{4-[(2,4-Diamino-pteridin-6-ylmethyl)-methyl-amino]-benzoylamino}-4-sulfo-butyric acid]
